Measurements from patent publication US4395400A, “Nonapeptide, a process for its preparation, an agent containing it and its use” (Hoechst Aktiengesellschaft, priority 1980, dated 1983).

Columns and labels:
[1] = absorption from the gastro-intestinal tract; format: in vivo; conditions: humans
Procedure: The preferred method of administration in humans is intranasal administration, since absorption of the compound from the gastro-intestinal tract is only slight and parenteral administration is inappropriate for the patient. About 0.1 ml of a buffer solution, in which the necessary quantity of the active compound is dissolved, is sprayed into the nose via a spray jet, by means of a dosing atomizer.

[2] = solubility in aqueous buffer solutions; format: physicochemical
Text: This makes the compound suitable for intranasal administration, for which, as shown by experience, solubility can be the limiting factor.

[3] = system: gonadoliberin biological action; conditions: D-aminoacid in position 6 with tert.-butyl type protective group; cited from earlier work

Row | SMILES | absorption from the gastro-intestinal tract [1] | solubility in aqueous buffer solutions ([2]; aqueous buffer solutions) | solubility compared with other gonadoliberin analogs ([2]; versus analogs of comparable effectiveness, particularly the D-Trp^6 or D-His(Bzl)^6 analogs) | biological action of position-6 substituted gonadoliberin derivative [3]
1 | CCNC(=O)[C@@H]1CCCN1C(=O)[C@H](CCCNC(=N)N)NC(=O)[C@H](CC(C)C)NC(=O)[C@@H](CCCC(=O)OC(C)(C)C)NC(=O)[C@H](Cc1ccc(O)cc1)NC(=O)[C@H](CO)NC(=O)[C@H](Cc1c[nH]c2ccccc12)NC(=O)[C@H](Cc1c[nH]cn1)NC(=O)[C@@H]1CCC(=O)N1 [nonapeptide] | only slight | good solubility | appreciably greater | –
2 | CC(C)(C)OC[C@@H](N)C(=O)O [O-tert.-butyl-D-serine] | – | – | – | strongest biological action
